Assays:
[1] = test system: models of myocardial infarction; assay: laser tissue blood oxygen monitor measurement in the tissue during pressure bath treatment with four kinds of gases; type: in vivo, male wistar rats
Text: The compositions of gases sealed under pressure in the carbon dioxide gas mist pressure bath means were subjected to the experiments using the four kinds of air mist (AM), CO2 gas (CG), CO2 mist (CM) and 100% oxygen mist (OM). Each of gases was sealed under pressure in the carbon dioxide gas mist pressure bath means, and the treatments were practiced. The numbers of the individuals were 13, 14, 15 and 11 pieces, respectively. Each of the individuals was intubated into male wistar rats aged of 8 weeks under the pentobarbital anesthesia, subjected to the thoracotomy, and was ligated at the coronary left-front rami descendens for making models of myocardial infarction. As to the treatments to these individuals by the four kinds of gases, the laser tissue blood oxygen monitor carried out measures on the pre-treatment (pre), the respective conditions at 10 min, 20 min and 30 min after starting the treatments, and the volume of oxygenated blood (volume of oxyhemoglobin) in the tissue of the individuals under the conditions (post) after finishing the treatments, and the measured results are shown in Table 1. To concretely explain Table 1, the air mist (AM) was experimented on the 13 individuals, and the laser tissue blood oxygen monitor carried out measures on the pre-treatment (pre), the conditions at 10 min, 20 min and 30 min after the treatments and the volumes of oxyhemoglobin of the respective individuals under the conditions (post) after the treatments. Then, “reference values” were made from values when having calculated the average values of the volume of oxyhemoglobin of the 13 individuals measured with the blood flow meter before the treatments, and Table expresses this average values as “1.000”. […] With respect to the average values of the volume of oxyhemoglobin of the respective individuals at 20 min, 30 min after starting the treatments and at the case of post, the above mentioned reference value made the division calculation on the value when having calculated the reference value of the volumes of oxyhemoglobin of the respective individuals, and the values calculated by the division are shown as the average values. […] The measures at this time also performed in each of the treatments as the pre-treatment (pre), the respective conditions of passing 10 min, 20 min and 30 min after starting the treatments, under the conditions (post) after finishing the treatments. In the results of measuring the treatments of the respective gases, “reference values” were made from values when calculating the average values of the volume of deoxyhemoglobin, the average value was expressed with “1.000” in this Table. The above mentioned reference values made the division calculation on the values when calculating the average values of the amount of deoxyhemoglobin of the respective individuals measured by the laser tissue blood oxygen monitor in the pre-treatment (pre) in the respective individuals of the cases of passing 20 min, 30 min and the condition (post) after finishing the treatments, and the values calculated by the division are shown as the average values. […] The measures performed, also at this time, in each of the gas treatments of the pre-treatment (pre), the respective conditions of 10 min, 20 min, 30 min after starting the treatment, and under the conditions (post) after finishing the treatments. In the results of measuring the treatments of the respective gases, making “reference values” from values when having calculated the average values of the volume of total hemoglobin, the average value is expressed with “1.000” in this Table. […]

myocardial infarction = assay: measuring the tissue pH over weeks of treatment; type: in vivo, wistar rats
Experimental: The composition to be sealed under pressure into the carbon dioxide gas mist pressure bath means was experimented in the four kinds of the control (C), non-treated myocardial infarction (NM), CO2 mist (M) and CO2 gas. The number practiced by each of the gases is 8, 9, 8 and 5 individuals. In each of treatments, the pH changes of the individuals are measured in the pre-treatment (Δ1 day), one week after the treatment (Δ1 wks), two week after the treatment (Δ2 wks), and three week after the treatment (Δ3 wks). To explain Table 5 concretely, the control (C) was experimented to 8 individuals, as to the values of pH of the respective individuals are measured 1 week (Δ1 wks) after the treatment, 2 weeks (Δ2 wks) after the treatment, and (Δ3 wks) after the treatment. As to the changing values of pH of the respective individuals, making the reference values of the values when having calculated the average values of pH of 8 individuals measured before the treatment (Δ1 day), Table 5 expresses this reference value as “0.000”. Similarly, also as to three kinds of gases of the non treated myocardial infarction (NM), CO2 mist and CO2 gas (CG), making the reference values of the values when having calculated the average values of the changing values in pH before the treatment (Δ1 day), Table 5 expresses this reference value as “0.000”. The average values of the changing values of pH in the respective individuals measured at 1 week (Δ1 wks) after the treatment, 2 weeks (Δ2 wks) after the treatment and (Δ3 wks) after the treatment are shown with the respective changing amounts from the respective reference values. […] The numbers of the individuals practiced with the gases are 8, 9, 8 and 5 pieces, respectively, providing that the average values of pH are shown as they are pre-treatment (day 1), 1 week (Δ1 wks) after the treatment, 2 weeks (Δ2 wks) after the treatment, and (Δ3 wks) after the treatment.

[2] = 10 min, relative to pre = 1.000
[3] = 20 min, relative to pre = 1.000
[4] = 30 min, relative to pre = 1.000

## O=C=O [CG, carbon dioxide]
[1]; [2]
  StO2 (degree of oxygen saturation in blood in the tissue), average value: 1.027
  total Hb (volume of total hemoglobin in the tissue), average value: 1.002
[1]; 10 min after starting treatment, relative to pre = 1.000
  deoxyHb (volume of deoxyhemoglobin in the tissue), average value: .974
[1]; 10 min after starting treatment, relative to pre-treatment average = 1.000
  oxyHb (volume of oxyhemoglobin in the tissue), average value: 1.030
[1]; [3]
  StO2 (degree of oxygen saturation in blood in the tissue), average value: 1.061
  deoxyHb (volume of deoxyhemoglobin in the tissue), average value: .942
  total Hb (volume of total hemoglobin in the tissue), average value: 1.010
[1]; 20 min after starting treatment, relative to pre = 1.000
  oxyHb (volume of oxyhemoglobin in the tissue), average value: 1.074
[1]; [4]
  StO2 (degree of oxygen saturation in blood in the tissue), average value: 1.063
  deoxyHb (volume of deoxyhemoglobin in the tissue), average value: .930
  total Hb (volume of total hemoglobin in the tissue), average value: .995
[1]; over the course of treatment (FIG. 11)
  amount of oxyhemoglobin, effect of the treatment in words: though not significant, increase of the amount of oxyhemoglobin was recognized
[1]; over the course of treatment (FIG. 17)
  StO2, effect of the treatment in words: increases until 20 minutes after the treatment starts
[1]; post (after finishing treatment), relative to pre = 1.000
  oxyHb (volume of oxyhemoglobin in the tissue), average value: 1.051
[1]; post, relative to pre = 1.000
  StO2 (degree of oxygen saturation in blood in the tissue), average value: 1.065
  deoxyHb (volume of deoxyhemoglobin in the tissue), average value: .915
  total Hb (volume of total hemoglobin in the tissue), average value: .981
Myocardial infarction; 1 wks after the treatment
  tissue pH, average value: 7.168
Myocardial infarction; 1 wks after the treatment, change from pre-treatment (1 day) = 0.000
  change of tissue pH (ΔpH), average value: −.084
Myocardial infarction; 2 wks after the treatment
  tissue pH, average value: 7.340
Myocardial infarction; 2 wks, change from pre-treatment = 0.000
  change of tissue pH (ΔpH), average value: .090
Myocardial infarction; 3 wks after the treatment
  tissue pH, average value: 7.306
Myocardial infarction; 3 wks, change from pre-treatment = 0.000
  change of tissue pH (ΔpH), average value: .050
Myocardial infarction; pre-treatment (day 1)
  tissue pH, average value: 7.254

Source: patent publication US20130072863A1, “CARBON DIOXIDE GAS MIST PRESSURE BATH METHOD AND CARBON DIOXIDE GAS MIST PRESSURE BATH APPARATUS FOR PREVENTING, IMPROVING OR CURING MYOCARDIAL INFARCTION” (priority 2010, published 2013)
